In ChEMBL document CHEMBL1201862, “PubChem BioAssay data set” (2004):
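These data come from cells grown in 96-well plates and exposed to compound for 48 hours at five concentrations. GI50: concentration for 50% inhibition of growth.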 Active and inactive are the calls of the source. No stated cut-off is given here; in the data, active = GI50 up to about 1.1 µM and inactive = higher.

What was measured:
Test in all cases: NCI-60 cell line screen, 48 h
NCI-H226 = system: NCI-H226
SF-268 = system: SF-268
IGROV-1 = system: IGROV-1
SF-295 = system: SF-295
RXF 393 = system: RXF 393
U-251 = system: U-251
SF-539 = system: SF-539
HOP-62 = system: HOP-62
CAKI-1 = system: CAKI-1
TK-10 = system: TK-10
SW-620 = system: SW-620
OVCAR-5 = system: OVCAR-5
NCI-H23 = system: NCI-H23
UACC-62 = system: UACC-62
HOP-92 = system: HOP-92

SMILES	GI50 (NCI-H226)	GI50 (SF-268)	GI50 (IGROV-1)	GI50 (SF-295)	GI50 (RXF 393)	GI50 (U-251)	GI50 (SF-539)	GI50 (HOP-62)	GI50 (CAKI-1)	GI50 (TK-10)	GI50 (SW-620)	GI50 (OVCAR-5)	GI50 (NCI-H23)	GI50 (UACC-62)	GI50 (HOP-92)
N#Cc1c2c(c(Cl)n3c1nc1ccccc13)CCCC2	1.74 µM (inactive)	2.58 µM (inactive)	2.69 µM (inactive)	4.83 µM (inactive)	0.272 µM (active)	3.65 µM (inactive)	3.95 µM (inactive)	> 10 µM (inactive)	2.76 µM (inactive)	2.53 µM (inactive)	1.96 µM (inactive)	18.4 µM (inactive)	4.54 µM (inactive)		
CCc1cccc(=O)c([O-])c1.CCc1cccc(=O)c([O-])c1.[Bi+3].[Cl-]	23.2 µM (inactive)	5.21 µM (inactive)	6.78 µM (inactive)	6.31 µM (inactive)	18.2 µM (inactive)	6.46 µM (inactive)	9.84 µM (inactive)	11.6 µM (inactive)	2.43 µM (inactive)	4.42 µM (inactive)	3.23 µM (inactive)	16.5 µM (inactive)	13.5 µM (inactive)	9.98 µM (inactive)	12.9 µM (inactive)
NC1=NC(=O)/C(=C/c2ccccc2[N+](=O)[O-])C(N)=N1	> 100 µM (inactive)		> 100 µM (inactive)	> 100 µM (inactive)	> 100 µM (inactive)	> 100 µM (inactive)	> 100 µM (inactive)	> 100 µM (inactive)	> 100 µM (inactive)	> 100 µM (inactive)	> 100 µM (inactive)	> 100 µM (inactive)	> 100 µM (inactive)	> 100 µM (inactive)	> 100 µM (inactive)
CCOc1ccccc1NC(=O)CC1SC(Nc2ccc([N+](=O)[O-])cc2)=NC1=O (centres undefined)	20.4 µM (inactive)	29.9 µM (inactive)	23.2 µM (inactive)	18 µM (inactive)	18.1 µM (inactive)	14.3 µM (inactive)		18.5 µM (inactive)		25.4 µM (inactive)	23.1 µM (inactive)	29.1 µM (inactive)	16.6 µM (inactive)	17.2 µM (inactive)	10.2 µM (inactive)
CC(=O)c1ccc(NC(=O)/C(CC(=O)c2sc(-c3cccnc3)nc2C)=N/NC(N)=O)cc1	25.9 µM (inactive)	38.7 µM (inactive)	> 100 µM (inactive)	41.7 µM (inactive)		68.1 µM (inactive)	> 10 µM (inactive)	> 10 µM (inactive)	23.2 µM (inactive)	> 10 µM (inactive)	> 100 µM (inactive)	45.1 µM (inactive)	> 10 µM (inactive)	52.2 µM (inactive)	
CCOc1ccccc1NC(=O)C1=C(C)NC(C)=C(C(=O)Nc2ccccc2OCC)C1c1ccc2c(c1)OCO2	22 µM (inactive)	41.5 µM (inactive)	25 µM (inactive)	21.2 µM (inactive)	16.8 µM (inactive)	47.5 µM (inactive)	25.5 µM (inactive)	37.4 µM (inactive)	21.5 µM (inactive)	76.6 µM (inactive)	38.4 µM (inactive)	53.2 µM (inactive)	23.9 µM (inactive)		7.36 µM (inactive)
COC(=O)N1C=CC2=C(C)C3Nc4ccccc4C3C(C)=C2C1 (centres undefined)	1.61 µM (inactive)	1.94 µM (inactive)	1.47 µM (inactive)	1.64 µM (inactive)		3.1 µM (inactive)	4.2 µM (inactive)	1.73 µM (inactive)	5.35 µM (inactive)	1.66 µM (inactive)	1.01 µM (active)	2.72 µM (inactive)	4.54 µM (inactive)	1.72 µM (inactive)	2.09 µM (inactive)
Cc1ccc(C(=O)/C=C2\Nc3c(c(=O)oc4ccccc34)N=C2NC23CC4CC(CC(C4)C2)C3)cc1	> 100 µM (inactive)	> 100 µM (inactive)	> 100 µM (inactive)		> 100 µM (inactive)	> 100 µM (inactive)	> 100 µM (inactive)	> 100 µM (inactive)	> 100 µM (inactive)	> 100 µM (inactive)	> 100 µM (inactive)	> 100 µM (inactive)	> 100 µM (inactive)	> 100 µM (inactive)	49.2 µM (inactive)
CN(C)CCNC(=O)c1ccc(Cl)c2c(Nc3ccc(S(=O)(=O)N=C(N)N)cc3)c3ccccc3nc12	2.08 µM (inactive)	3.48 µM (inactive)	3.55 µM (inactive)	3.16 µM (inactive)	4.66 µM (inactive)	3.29 µM (inactive)	3.81 µM (inactive)	10.1 µM (inactive)		12.6 µM (inactive)	1.73 µM (inactive)	> 10 µM (inactive)	4.68 µM (inactive)	5.42 µM (inactive)	
CC1(C)C(=O)N(CCCCCCN2C(=O)C(C)(C)c3ccccc32)c2ccccc21	26.3 µM (inactive)	60.8 µM (inactive)	88.3 µM (inactive)	44.1 µM (inactive)		36.6 µM (inactive)	> 100 µM (inactive)	80.7 µM (inactive)	62.4 µM (inactive)	58.3 µM (inactive)	14.7 µM (inactive)	80.5 µM (inactive)	42.6 µM (inactive)	22.9 µM (inactive)	42.8 µM (inactive)
CCOC(=O)C(=O)Nc1ccccc1C(C)C	> 100 µM (inactive)	> 100 µM (inactive)	> 100 µM (inactive)	> 100 µM (inactive)		> 100 µM (inactive)	> 100 µM (inactive)	> 100 µM (inactive)	> 100 µM (inactive)	> 100 µM (inactive)	> 100 µM (inactive)	> 100 µM (inactive)	> 100 µM (inactive)	> 100 µM (inactive)	> 100 µM (inactive)
C1=C2/CC[C@H](Sc3ccccc3)[C@H]2C2(CCCCC/1)OCCO2		82.8 µM (inactive)	54.7 µM (inactive)	37.8 µM (inactive)		21.8 µM (inactive)	40.4 µM (inactive)	40.4 µM (inactive)	20.2 µM (inactive)	> 100 µM (inactive)	29 µM (inactive)	29.5 µM (inactive)	34.8 µM (inactive)	19.6 µM (inactive)	18.6 µM (inactive)
COc1ccc(CN2C(=O)C(Cc3cc(OC)c(OC)c(C)c3OC)NC(=O)/C2=C/c2cc(OC)c(OC)c(C)c2OC)cc1 (centres undefined)	18.7 µM (inactive)	51.6 µM (inactive)	53.2 µM (inactive)	43.5 µM (inactive)	25.8 µM (inactive)	37.2 µM (inactive)	45.6 µM (inactive)	50.9 µM (inactive)		33.5 µM (inactive)	33.9 µM (inactive)	44.9 µM (inactive)	43.1 µM (inactive)	33.7 µM (inactive)	29 µM (inactive)
Brc1cc2c(cc1C1SCCS1)OCO2		> 100 µM (inactive)	> 100 µM (inactive)	> 100 µM (inactive)		> 100 µM (inactive)	> 100 µM (inactive)	> 100 µM (inactive)	> 100 µM (inactive)	> 100 µM (inactive)	> 100 µM (inactive)	> 100 µM (inactive)	> 100 µM (inactive)	> 100 µM (inactive)	
Cn1nc(-c2ccccc2)c(C(=O)/C=C/c2ccc(F)cc2)c(N2CCOCC2)c1=O		19.1 µM (inactive)	20.3 µM (inactive)	18.2 µM (inactive)	13.6 µM (inactive)	16.7 µM (inactive)	17.3 µM (inactive)		> 10 µM (inactive)	28.6 µM (inactive)	21.3 µM (inactive)		> 10 µM (inactive)	18.1 µM (inactive)	15.2 µM (inactive)
COc1ccc2cccc(C(=O)c3ccc(C)c4c3CCC4)c2c1	52.4 µM (inactive)	> 100 µM (inactive)	24.6 µM (inactive)	53.6 µM (inactive)	41.4 µM (inactive)	53.7 µM (inactive)		24.9 µM (inactive)	31.7 µM (inactive)	32.3 µM (inactive)	41.8 µM (inactive)	34.3 µM (inactive)	34.1 µM (inactive)	25.4 µM (inactive)	
O=c1c2c([nH]c3cc4c(cc13)OCO4)-c1ccccc1C2	27.2 µM (inactive)	36.2 µM (inactive)	17.7 µM (inactive)	26.9 µM (inactive)	16.4 µM (inactive)	17.2 µM (inactive)	18.1 µM (inactive)	23.4 µM (inactive)	39 µM (inactive)	10.7 µM (inactive)	35.2 µM (inactive)		26.1 µM (inactive)	17.1 µM (inactive)	18.3 µM (inactive)
O=C(N[C@H]1CC2(C=C(I)C(=O)C(I)=C2)OC1=O)OCc1ccccc1	22.7 µM (inactive)	18.1 µM (inactive)		19.5 µM (inactive)	15.2 µM (inactive)	17.3 µM (inactive)	17.7 µM (inactive)	22.6 µM (inactive)	20.4 µM (inactive)	17.7 µM (inactive)		18.9 µM (inactive)	17.8 µM (inactive)	16.5 µM (inactive)	
O=C1c2cccc3cccc(c23)C(=O)N1CCN(CCO)CCO	16 µM (inactive)	35.6 µM (inactive)	32.7 µM (inactive)	47.4 µM (inactive)	20.9 µM (inactive)	32.4 µM (inactive)	23.5 µM (inactive)	31.7 µM (inactive)		17.5 µM (inactive)	19.1 µM (inactive)	20.9 µM (inactive)	25.4 µM (inactive)	20.6 µM (inactive)	26.7 µM (inactive)
CCOC(=O)C1=C(C)NC(=S)NC1c1ccccc1 (centres undefined)	> 100 µM (inactive)	> 100 µM (inactive)	> 100 µM (inactive)	> 100 µM (inactive)	> 66.2 µM (inactive)	> 39.3 µM (inactive)	> 100 µM (inactive)	> 100 µM (inactive)	> 20 µM (inactive)	> 100 µM (inactive)		> 100 µM (inactive)	> 100 µM (inactive)	> 71.3 µM (inactive)	> 100 µM (inactive)
